# Assays:
# MOLM13 = test: Cell proliferation by CellTiter-Glo, human leukemia cells; format: cell-based; settings: MOLM13, 72 h
# Description: (§1) Eight human leukemia cells with or without MLL1 translocation were treated with AUY922 for 72 h and cell proliferation rate were measured by CellTiter-Glo. IC95 were used to estimate the cell response to HSP90 inhibition. Supplementary Table. S1: 35 Genes were Identified as Modulators of Cell Response to HSP90 Inhibition by siRNA Screening
# NOMO = test: as above; format: cell-based; settings: 72 h
# Description: as §1
# RS(4,11) = test: as above; format: cell-based; settings: 72 h
# Description: as §1
# [1] = system: other leukemia cell lines; test: as above; format: cell-based; settings: 72 h
# Description: as §1
# MLL1+/+ MEFs [2] = test: Microscopic analysis and dose response (CTG) in MEFs; format: cell-based, mouse
# Description: (§2) A. Cell colony formation assay of MLL1 knockdown with AUY922 treatment in A375 cells. 5000 shNTC or shMLL1 A375 cells were seeded in six wells plate and were treated or untreated with Doxycycline for 5 days, then followed by compound treatment for 6 days. B. Cell colony formation assay of MLL1 knockdown with AUY922 treatment in A2058 cells. 5000 shNTC or shMLL1 A2058 cells were seeded in six wells plate and were treated or untreated with Doxycycline for 5 days, then followed by compound treatment for 6 days. C. Western blotting analysis of tumor samples. Tumor samples were collected at the end of studies and western blotting analysis of MLL1 and GAPDH were performed. D. Real-time PCR analysis of tumor samples. Tumor samples were collected at the end of studies and total mRNA was collected and Real-time PCR was performed. E. The combinational effect of MLL1 knockdown and HSP90 inhibitor in A375 xenograft mouse model. Tumor growth rate of A375 cells expressing inducible control shRNA or shRNA against MLL1 under Doxycycline and/or HSP990 were compared at different time points. […] The percentage of S+G2M cells were determined by PI staining. […] The apoptotic cells represented by 7AAD+AnnexinV+ were determined by FACS. […] Relative cell growth was measured by CTG. […] The apoptotic cells represented by 7AAD+AnnexinV+ were determined by FACS.
# MLL1−/− MEFs [3] = test: as above; format: cell-based, mouse; settings: after 48 h treatment
# Description: as §2
# MLL1+/+ MEFs [4] = test: Cell apoptosis analysis (7AAD+AnnexinV+, FACS) in MEFs; format: cell-based, mouse; settings: AUY922 100 nM, 48 h
# Description: as §2
# MLL1−/− MEFs [5] = test: as above; format: cell-based, mouse; settings: AUY922 100 nM, 48 h
# Description: as §2
# human primary BALL cells = test: Dose response in human primary BALL cells (CellTiter-Glo); format: cell-based; settings: 48 h
# Description: A. The percentage of human leukemia cells in bone marrow of recipient mice transplanted with human primary leukemia cells. The human cells represented by human CD45+ were determined by FACS. B. Real-time PCR analysis of MLL1 expression among different human primary leukemia cell. C. Dose response of AUY922 in human primary BALL cells. Human primary BALL cells were treated with DMSO or serial dilutions of AUY922 for 48 h. Relative cell growth was measured by CellTiter-Glo. D. JURKAT, SEM, RS(4,11) and MOLM13 were treated for 72 h with different doses of AUY922 and/or NVP-JAE067, inhibition of cell viability was measured using the CellTiter-Glo assay. E. Chalice software was used to calculate excess inhibition over Loewe additivity for each AUY922 and NVP-JAE067 dose combination.
# To investigate whether MLL1 expression is different in primary human cancer cells, we examined the expression of MLL1 in human B acute lymphoblastic leukemia samples. The primary human BALL cells were transplanted into immune deficient mice and bone marrow cells were collected from recipient mice until blood tumor burden is higher than 70% by FACS analysis. […] We next evaluated the efficacy of AUY922 on those human leukemia cells. […] We next tested the combination effect of AUY922 and DOT1L inhibitor NVP-JAE067 on human leukemia cells. […] Taken together, those result indicated human leukemia cells with MLL1 low expression may be more sensitive to HSP90 inhibition and the combination of HSP90 inhibitor and DOT1L inhibitor may be a good strategy for human leukemia cells harboring MLL1 translocation.
# A375, A2058 and HCT116 = test: Cell colony formation assay with MLL1 knockdown; format: cell-based, human; settings: Doxycycline 5 days, compound 6 days
# Description: A. Cell colony formation assay of MLL1 knockdown with AUY922 treatment in A375 cells. 5000 shNTC or shMLL1 A375 cells were seeded in six wells plate and were treated or untreated with Doxycycline for 5 days, then followed by compound treatment for 6 days. B. Cell colony formation assay of MLL1 knockdown with AUY922 treatment in A2058 cells. 5000 shNTC or shMLL1 A2058 cells were seeded in six wells plate and were treated or untreated with Doxycycline for 5 days, then followed by compound treatment for 6 days. C. Western blotting analysis of tumor samples. Tumor samples were collected at the end of studies and western blotting analysis of MLL1 and GAPDH were performed. D. Real-time PCR analysis of tumor samples. Tumor samples were collected at the end of studies and total mRNA was collected and Real-time PCR was performed. E. The combinational effect of MLL1 knockdown and HSP90 inhibitor in A375 xenograft mouse model. Tumor growth rate of A375 cells expressing inducible control shRNA or shRNA against MLL1 under Doxycycline and/or HSP990 were compared at different time points. […] The percentage of S+G2M cells were determined by PI staining. […] The apoptotic cells represented by 7AAD+AnnexinV+ were determined by FACS. […] Relative cell growth was measured by CTG. […] The apoptotic cells represented by 7AAD+AnnexinV+ were determined by FACS. […]
# [6] = system: binding of HSF1 to HSP70 or BAG3 promoter; test: ChIP with HSF1 antibody, quantitative real-time PCR; format: cell-based, human; settings: A375 cells, AUY922 100 nM, one hour
# Description: shHSF1 transduced A375 cells were treated with or without Doxycycline for 3 days and were further treated with AUY922 100 nM for 1 h. Chromatin was immunoprecipitated with anti-MLL1 antibody and amplified by quantitative real-time PCR using primers around HSE element of HSP70 (A) or BAG3 (B) gene promoter and MLL1 binding site of MESI1 (C) promoter.
# To examine the recruitment of MLL1 to the HSF1-modulated gene promoter, we performed chromatin immunoprecipitation (ChIP) with A375 cells transduced with control or shMLL1 and treated or untreated with AUY922 for 1 h. Chromatin from those cells was sonicated to obtain fragments below 500 bp and immunoprecipitated using polyclonal against HSF1 and MLL1. Quantitative real-time PCR analysis was carried out with primer specific for the HSP70 and BAG3 encompassing the HSE element. MLL1 binding site of MESI1 was used as a control. […] In contrast, the bindings were not detected in A375 cells with inducible HSF1 knockdown (Supplement FIG. 3). A significant of MLL1 occupancy of the HSP70 and BAG3 gene promoter is also observed at one hour of AUY922 treatment (FIGS. 2C and D). In contrast, the binding of MLL1 to MESI promoter was not detected (FIG. 2E). […]
# A375 cells = test: Cell colony formation assay with MLL1 knockdown, NVP-LGX818; format: cell-based, human; settings: shMLL1
# Description: Supplementary FIG. 5: Cell colony formation assay of HSF1 knockdown or MLL1 knockdown with NVP-LGX818 treatment in A375 cells 5000 shNTC, shHSF1 or shMLL1 A375 cells were seeded in six wells plate and were treated or untreated with Doxycycline for 5 days, then followed by compound treatment for 6 days.
# A375 xenograft = A375 xenograft mouse model, tumor growth; format: in vivo
# SEM xenograft = SEM xenograft mouse model, tumor growth; format: in vivo; settings: 10 mg/kg PO, qw
# Description: (§3) A. Real-time PCR analysis of different human leukemia cell lines under HSP90 inhibitor treatment. Human leukemia cells were cultured and treated or untreated with AUY922 for 48 h. Then, total mRNA was collected and Real-time PCR was performed. B. Cell apoptosis analysis of MLL1 low expression or MLL1 high expression human leukemia cells with AUY922 treatment. Human leukemia cells were treated or untreated with AUY922 100 nM for 48 h. The apoptotic cells represented by 7AAD+AnnexinV+ were determined by FACS. C. The effect of HSP90 inhibitor in SEM and MOLM13 xenograft mouse model. Tumor growth rate of SEM and MOLM13 under HSP990 treatment were compared at different time points. […] SEM and MOLM13 cells were treated or untreated with AUY922 100 nM for 3 h. Total RNA were collected and microarray was performed.
# (§4) Mice were maintained and handled in accordance with Novartis Biomedical Research Animal Care and Use Committee protocols and regulations. A375 with Tet-inducible shRNA against MLL1 were cultured in DMEM supplemented with 10% Tet-approved FBS. Mice (6-8 wk old, n=8) were inoculated s.c. with 1×10^6 cells in the right dorsal axillary region. Tumor volume was measured by calipering in two dimensions and calculated as (length×width2)/2. […] Data were expressed as mean±SEM, and differences were considered statistically significant at P<0.05 by Student t test.
# MOLM13 xenograft = MOLM13 xenograft mouse model, tumor growth; format: in vivo; settings: 10 mg/kg PO, qw
# Description: as §3, §4
smiles,measurement,setting,value
"CCNC(=O)c1noc(-c2cc(C(C)C)c(O)cc2O)c1-c1ccc(CN2CCOCC2)cc1 [AUY922, 5-(2,4-Dihydroxy-5-isopropyl-phenyl)-4-(4-morpholin-4-ylmethyl-phenyl)-isoxazole-3-carboxylic acid ethylamide]",IC95,MOLM13,about 100 nM
same,IC95,NOMO,about 100 nM
same,IC95,"RS(4,11)",about 100 nM
same,IC95,[1],about 1000 nM
same,effect on proliferation / killing of cells,MLL1+/+ MEFs [2],"inhibits the proliferation rate of MEFs, but didn't kill those cells"
same,cells killed,MLL1−/− MEFs [3],more than 90%
same,cells induced apoptosis,MLL1+/+ MEFs [4],30%
same,cells induced apoptosis,MLL1−/− MEFs [5],more than 80%
same,response to treatment (relative cell growth),human primary BALL cells; P1 leukemia cells with high MLL1 expression,didn't response
same,response to treatment (relative cell growth),human primary BALL cells; P4 leukemia cells with low MLL1 expression,good response
same,response to treatment (relative cell growth),human primary BALL cells; other two human leukemia samples,a certain response
same,sensitivity in colony formation on induction of MLL1 shRNA,"A375, A2058 and HCT116",dramatically sensitivity
same,binding of HSF1 to HSP70 or BAG3 promoter (ChIP),[6],increased about ten times
COC(=O)N[C@@H](C)CNc1nccc(-c2cn(C(C)C)nc2-c2cc(Cl)cc(NS(C)(=O)=O)c2F)n1 [NVP-LGX818],"combinational effect with MLL1 knockdown, colony formation",A375 cells,does not have a combinational effect
"COc1cccc(-c2cc(F)ccc2[C@H]2Cc3nc(N)nc(C)c3C(=O)N2)n1 [HSP990, (R)-2-amino-7-[4-fluoro-2-(6-methyoxy-pyridin-2-yl)-phenyl]-4-methyl-7,8-dihydro-6H-pyrido[4,3-d]pyrimidin-5-one]",tumor growth outcome,A375 xenograft; HSF1 knockdown & HSP990 combination,tumor stasis
same,"inhibited tumor growth, T/C","A375 xenograft; HSP990 alone, 10 mg/kg PO, qw",50 % T/C
same,"inhibited tumor growth, T/C",SEM xenograft,30 % T/C
same,"inhibited tumor growth, T/C",MOLM13 xenograft,60 % T/C
